Test results: PMC12264943, “Identification of New Human P2X7 Antagonists Using Ligand- and Structure-Based Virtual Screening” (Journal of Chemical Information and Modeling, 2025)
Entries after “also recorded” stand apart in the source; their conditions may differ. Values belong to the molecule of their own block, whether it stands above or below them.

Assays:
Format in all cases: cell-based
[1] = target: T1, hP2X7 (Homo sapiens, UniProt Q99572); test: YO-PRO 1 dye uptake assay, HEK-293 cells stably transfected with hP2X7; details: for reduction of hP2X7 activity / hP2X7 inhibition in YO-PRO 1 dye uptake, SAR: analogues at 10 μM; for reduction of hP2X7 activity: YO-PRO 1, 1 mM ATP, 0.1% DMSO; for hP2X7 inhibition in YO-PRO 1 dye uptake, SAR: 1 mM ATP; for IC50: Table 1, table names no assay, values of 2 and 9 are from YO-PRO 1 dye uptake in hP2X7 HEK-293 cells, read-out: IC50
T1 construct: expressed in transfected cells; host or cells: HEK-293, stably transfected (gift of E. Adinolfi's group, Ferrara University)
T1 sequence (Q99572 1-595): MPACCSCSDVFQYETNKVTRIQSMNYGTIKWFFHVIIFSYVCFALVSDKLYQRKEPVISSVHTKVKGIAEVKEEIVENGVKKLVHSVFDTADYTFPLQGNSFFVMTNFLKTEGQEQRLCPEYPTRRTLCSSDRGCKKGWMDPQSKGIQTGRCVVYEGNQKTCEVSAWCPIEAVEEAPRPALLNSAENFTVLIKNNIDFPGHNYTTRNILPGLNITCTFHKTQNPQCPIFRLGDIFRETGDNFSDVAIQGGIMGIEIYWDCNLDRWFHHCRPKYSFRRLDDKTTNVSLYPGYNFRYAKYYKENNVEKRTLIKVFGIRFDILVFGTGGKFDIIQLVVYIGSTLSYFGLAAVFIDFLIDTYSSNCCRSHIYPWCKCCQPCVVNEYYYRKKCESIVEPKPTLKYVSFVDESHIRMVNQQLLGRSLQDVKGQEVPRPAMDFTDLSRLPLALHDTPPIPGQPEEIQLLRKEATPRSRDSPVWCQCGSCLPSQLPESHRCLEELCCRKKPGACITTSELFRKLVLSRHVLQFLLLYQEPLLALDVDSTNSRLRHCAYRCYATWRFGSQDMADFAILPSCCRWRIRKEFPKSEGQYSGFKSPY
Description: (§1) Astrocytoma 1321 N1 (established by Dr. Gaia Pasqualetto) and HEK-293 (kindly gifted by E. Adinolfi’s group, Ferrara University) both stably transfected with hP2X7, were used to assess the activity of the small molecules selected from the VS. Cells were maintained in DMEM:F12 (PanBiotech) supplemented with 10% FBS, 1% pen-strep, and 150 μg/mL G418 (PanBiotech).
(§2) Astrocytoma 1321 N1 cells (2–2.5 × 10^4 cells/well) and HEK-293 cells (4–5 × 10^4 cells/well) expressing hP2X7 were seeded in poly-L-lysine-coated 96-well plates (Sarstedt) 24 h before the experiment. YO-PRO 1 dye was prepared at 5 μM in extracellular solution with low divalent cations (ECS-LD) buffer (147 mM NaCl, 10 mM HEPES, 13 mM glucose, 0.2 mM CaCl2, 2 mM KCl, pH 7.4) and added to cells after washing them with Dulbecco’s phosphate- buffered saline (DPBS) (PanBiotech) and incubated for 20 min at 37 °C. ATP-induced dye uptake, mediated by hP2X7 activation, was monitored using a Clariostar plate reader (excitation: 485 nm; emission: 538 nm) for 30 cycles (75–150 s/cycle), after recording the baseline for five cycles. hP2X7 activation was quantified at cycle 10 by calculating the fluorescence intensity (FI) ratio (Δ(Fcycle 10–F cycle 1)/cycle time).
Compounds 2 and 9, identified as hits, were further evaluated for concentration-dependent inhibition (IC50) of hP2X7 activation in the YO-PRO 1 dye uptake assay using HEK-293 cells stably transfected with hP2X7 (unfortunately, at this point in the study, the stably transfected 1321N1 cells lost P2X7 expression, and we were unable to recover them from frozen aliquots), for which the ATP EC50 was determined to be approximately 1 mM (Supporting material Figure 4C). Seven concentrations (100 to 0.03 μM) were tested, but due to precipitation at 100 μM, the DMSO concentration was increased to 1%.
3 Inhibitory concentration response evaluation of compounds 2 and 9 and their groups highlighted for SAR. […] Compound activity was evaluated along a time of 20 min (75 s per cycle) after ATP addition (700 μM). The fluorescence intensity (FI) values of the first 10 cycles were considered for assessing their ability to inhibit hP2X7. The curves represent three biological replicates (n = 4 per replicate). Data were normalized by setting as 100% the FI recorded by hP2X7 HEK-293 cells incubated in 1% DMSO and stimulated by ATP, and as 0% the FI recorded by the same cells but treated with ECS-LD (assay buffer). (C) Highlighted areas of compound 2 considered for SAR study. R1 refers to the ethyl-benzyl group of the molecules, and R2 and R3 refer to the benzo-(1,3)-dioxol groups. (D) Highlighted areas of compound 9 considered for SAR study. We have defined the area highlighted in yellow and numbered as 1 as the “front” region of the molecule and the one colored in pink and named as 2 as the “back” region of the molecule. L highlights the urea and amide linkers of compounds 2 and 9, respectively.
(§3) 4 Evaluation of compound 2 and 9 analogue activity using YO-PRO 1 and MPR assays. The activity of compound 2 (A and B) and 9 (C and D) analogues was evaluated in YO-PRO 1 (A and C) and MPR (B and D) assays. The compounds were tested at 10 μM and preincubated for either 20 (YO-PRO 1) or 30 min (MPR). The baseline was recorded for 5 cycles before ATP treatment (1 mM). Fluorescence was recorded for 25 (YO-PRO 1) or 5 min (MPR). The data were normalized by setting as 100% for the fluorescence measured from hP2X7 HEK-293 cells incubated with vehicle (0.1% DMSO) and treated with 1 mM ATP and 0% for the fluorescence recorded by the cells not treated with ATP. The data shown correspond to three independent biological replicates (3 technical replicates per experiment; error bars represent the SEM from the mean values of each biological replicate (n = 3)). The statistical analysis was performed with one-way Anova using Dunnett’s function (P**** < 0.0001; P*** < 0.0003; P** < 0.002; P* < 0.02).

[2] = target: T1, hP2X7; test: Membrane Potential Red (MPR) dye assay, HEK-293 cells stably transfected with hP2X7; details: 10 μM, 1 mM ATP, hP2X7 HEK-293
Description: as §1
(§4) Cells were plated as described for the YO-PRO 1 dye uptake assay. MPR dye (Molecular Devices) was prepared following the manufacturer’s protocol and diluted 1:10 in ECS-LD buffer. After washing with DPBS, cells were incubated with the dye for 30 min at 37 °C. Fluorescence changes (excitation: 525 nm; emission: 560 nm) were recorded using a Clariostar plate reader during ATP-induced membrane depolarization. Baseline fluorescence was recorded for 5 cycles, and ATP was added via an automated injector (10 μL). Membrane depolarization was quantified as the ratio of the maximal fluorescence change over baseline intensity (Δ(F max–F0)/F0)).
as §3

[3] = target: T1, hP2X7; test: Membrane Potential Red (MPR) dye assay, 1321 N1 cells stably transfected with hP2X7; details: compound 10 μM, 700 μM ATP
[4] = target: T1, hP2X7; test: YO-PRO 1 dye uptake assay, 1321 N1 cells stably transfected with hP2X7; details: compound 30 μM, 700 μM ATP; for reduction of P2X7 activation: 0.3% DMSO
Description: as §1, §2
The P2X7 receptor, besides being a ligand-gated ion channel, forms large membrane pores following prolonged exposure to high concentrations of ATP, leading to apoptosis (Mackenzie et al. 2005). The YO-PRO 1 dye uptake assay, which measures dye influx through these pores, was selected as the primary screen. The fluorescence of YO-PRO 1 increases when it binds to DNA, enabling real-time monitoring of P2X7 activation (calculated as the rate of increase in fluorescence as YO-PRO 1 binds nuclear DNA).
The screening compounds were tested at 30 μM (0.3% DMSO) in 5 μM YO-PRO 1 dye diluted in freshly prepared ECS-LD buffer. Cells pretreated with the screening compounds were challenged with 700 μM ATP, and the fluorescence intensities were recorded. The negative control consisted of cells treated with 0.3% DMSO, while the positive control was 0.1 μM JNJ47965567, a selective P2X7 antagonist. ,
(§5) 2 Initial screening assays to identify hit compounds. (A) The compounds were screened at 30 μM in the YO-PRO 1 dye uptake using 1321 N1 cells stably transfected with hP2X7. Compound activity was evaluated along a time of 20 min (75 s per cycle) after ATP addition (700 μM). The fluorescence intensity (FI) values of the first 10 cycles were considered for assessing their ability to inhibit hP2X7. Compound responses were normalized to the fluorescent signal recorded on 0.3% DMSO cells treated with 700 μM ATP of each plate. […] (B) Compounds screened at 10 μM using MPR using 1321 N1 cells stably transfected with hP2X7. The compound activity was evaluated for 5 min after ATP addition (15 s per cycle). The fluorescence intensity recorded in the first cycles (before reaching a plateau response) was considered for assessing the small molecule’s ability to inhibit hP2X7. Compound responses were normalized to the fluorescence signal recorded on 0.1% DMSO cells treated with 700 μM ATP of each plate. […] One-way ANOVA and Dunnet test were used for statistical analysis (****P < 0.0001), (*P < 0.02).

[5] = target: T1, hP2X7; test: Membrane Potential Red (MPR) dye assay, 1321 N1 cells stably transfected with hP2X7; details: P2X7; compound 10 μM, 700 μM ATP
Description: as §1, §4
as §5, with “0.02). […]” for “0.02).”

SMILES: CCOc1ccc(NC(=O)NC(Cc2ccc(F)cc2)Cc2ccc3c(c2)OCO3)cc1 (stereo not shown) [Compound 2h]
reduction of hP2X7 activity [1]: 80%

SMILES: O=C(CSc1ncccc1C(=O)N1CCN(c2ccccc2F)CC1)Nc1ccc2c(c1)OCO2 [Compound 9e]
hP2X7 inhibition in YO-PRO 1 dye uptake, SAR [1]: activity comparable to that of 9; also recorded: enhanced target inhibition

SMILES: CC(C)NC(=O)NC(Cc1ccc2c(c1)OCO2)Cc1ccc2c(c1)OCO2 [Compound 2a]
hP2X7 inhibition in YO-PRO 1 dye uptake, SAR [1]: reduced antagonist effects

SMILES: CNC(=O)NC(Cc1ccc(F)cc1)Cc1ccc2c(c1)OCO2 (stereo not shown) [Compound 2d]
hP2X7 inhibition in YO-PRO 1 dye uptake, SAR [1]: reduced antagonist effects

SMILES: O=C(NCCc1ccc2c(c1)OCO2)NCCN1CCN(c2ccccc2)CC1 [Compound 2f]
hP2X7 inhibition in YO-PRO 1 dye uptake, SAR [1]: reduced activity compared to 2

SMILES: COc1ccc(CCNC(=O)Nc2ccc3c(c2)OCO3)cc1OC [Compound 2j]
hP2X7 inhibition in YO-PRO 1 dye uptake, SAR [1]: reduced activity compared to 2

SMILES: CCOC(=O)c1ccccc1NC(=O)NC(Cc1ccc(OC)cc1)Cc1ccc2c(c1)OCO2 (stereo not shown) [Compound 2e]
hP2X7 inhibition in YO-PRO 1 dye uptake, SAR [1]: diminished hP2X7 inhibition

SMILES: COc1ccc(CC(Cc2ccc3c(c2)OCO3)NC(=O)c2ccc(NC(C)=O)cc2)cc1 (stereo not shown) [Compound 2k]
activity in MPR assay [2]: diminished activity relative to the other structural analogues
hP2X7 inhibition in YO-PRO 1 dye uptake, SAR [1]: still reduced receptor activation
reduction of hP2X7 activity [1]: 80%

SMILES: O=C(Nc1ccc(F)cc1F)NC(Cc1ccc2c(c1)OCO2)Cc1ccc2c(c1)OCO2 [Compound 2c]
reduction of hP2X7 activity [1]: 80%

SMILES: COc1ccc(CC(Cc2ccc3c(c2)OCO3)NC(=O)Nc2ccc(C)c(F)c2)cc1 (stereo not shown) [Compound 2b]
hP2X7 inhibition in YO-PRO 1 dye uptake, SAR [1]: diminished hP2X7 inhibition

SMILES: CN(C)S(=O)(=O)c1cccc(COC(=O)c2cccnc2SCC(=O)Nc2ccc3c(c2)OCO3)c1 [Compound 9h]
hP2X7 inhibition in YO-PRO 1 dye uptake, SAR [1]: activity comparable to that of 9; also recorded: enhanced target inhibition

SMILES: O=C(NCc1ccc(Oc2ccc(F)cc2)cc1)c1ccccc1CN1C(=O)CNC1=O [Compound 4]
activity in MPR screen, hP2X7-induced membrane depolarization [3]: statistically inhibited
activity in YO-PRO 1 dye uptake screen [4]: no significant activity
inhibition at 10 µM [5]: ~90%

More lines, now with the values ahead:

hP2X7 inhibition in YO-PRO 1 dye uptake, SAR [1]: reduced activity
SMILES: CN(C)C(=O)Cn1cc(NC(=O)c2cnc(-c3ccc4c(c3)OCO4)s2)cn1 [Compound 9a]

activity in MPR screen, hP2X7-induced membrane depolarization [3]: did not also block
activity in YO-PRO 1 dye uptake screen [4]: antagonist activity
reduction of P2X7 activation [4]: at least 50%
IC50 [1]: 4.23 µM
SMILES: Cc1nn(-c2ccccc2)c(C)c1NC(=O)NCc1ccccc1Cn1cccn1 [Compound 7]

activity in MPR screen, hP2X7-induced membrane depolarization [3]: did not also block
activity in YO-PRO 1 dye uptake screen [4]: antagonist activity
reduction of P2X7 activation [4]: at least 50%
IC50 [1]: 20.9 µM
SMILES: COc1cccc(NC(=O)CSc2ccccc2C(=O)NCc2cn3ccccc3n2)c1 [Compound 6]

hP2X7 inhibition in YO-PRO 1 dye uptake, SAR [1]: activity comparable to that of 9
SMILES: O=C(CSc1ncccc1C(=O)Nc1ccc(-n2cnnn2)cc1)Nc1ccc2c(c1)OCO2 [Compound 9d]

activity in MPR screen, hP2X7-induced membrane depolarization [3]: did not also block
activity in YO-PRO 1 dye uptake screen [4]: antagonist activity
reduction of P2X7 activation [4]: at least 50%
IC50 [1]: 4.07 µM
SMILES: O=C(NCc1ccccc1)NC1(C(=O)NCc2ccccc2Cn2ccnc2)CCCC1 [Compound 8]

hP2X7 inhibition in YO-PRO 1 dye uptake, SAR [1]: compromised activity
SMILES: O=C(COC(=O)c1cccnc1SCC(=O)Nc1ccc2c(c1)OCO2)NCc1ccco1 [Compound 9c]
